Experiments:
HuH-7 hepatoma cells = test: In vitro cell proliferation assay (CellTiter-Glo, CTG), HuH-7; assay type: cell-based; conditions: HuH-7 cells
Description: (§1) In Vitro Cell Proliferation Assay of FGFR4 (CellTiter-Glo Luminescent Cell Viability Assay, CTG Assay)
(§2) Hep 3B hepatoma cells were purchased from Cell Resource Center of Peking Union College, and HuH-7 hepatoma cells were purchased from Shanghai Biological Technology Co., Ltd. enzyme research. The cells were prepared at a concentration of 3×10^4/mL, which was then added with 100 μL to each well of a 96-well transparent flat-bottom black-walled plate to make 3000 cells per well. Incubate overnight at 37° C. in 5% CO2 incubator. Dilute a compound and add it to the wells having the cells, then add cell culture medium to 200 μL per well. Put in CO2 incubator for incubation. After 96 hours, 100 μL of culture medium was removed from each well, 100 μL of CTG was added, and the 96-well plate was placed on a shaker for 10 minutes, and placed in the shade at room temperature for 45 minutes. Data was read out by SoftMax Pro i3X Microplate Reader of MD, analyzed by the software GraphPad Prism 5.0, and S-shaped dose-response curve was drawn, then the EC50 values were calculated.

Hep 3B hepatoma cells = test: In vitro cell proliferation assay (CellTiter-Glo, CTG), Hep 3B; assay type: cell-based, human; conditions: Hep 3B cells
Description: as §1, §2

Hep 3B tumor models = test: In vivo efficacy test, Hep3B subcutaneous xenograft in nude mice; set-up: species or system Nu/Nu nude mice; conditions: for tumor inhibition rate: gavage, twice a day, Hep3B xenograft, day 16
Description: Human hepatoma Hep3B cells and cell culture medium (EMEM) were purchased from ATCC. Antibiotics (penicillin, streptomycin) and Tryspin-EDTA were purchased from Gibco. Phosphate buffered saline (PBS) and fetal bovine serum (FBS) were purchased from Hyclone. Matrigel was purchased from Corning. Nu/Nu nude mice 6-8 weeks, female, purchased from Vitalriver.
Human hepatoma Hep3B cells were cultured in monolayer in vitro, and cultured in EMEM with 10% fetal bovine serum, 100 U/mL penicillin and 100 μg/mL streptomycin, 37° C., 5% CO2. Trypsin-EDTA was used twice a week for routine digestion and passage. When cell saturation reached 80%-90%, cells were harvested, counted, and seeded. 0.2 mL of 10×10^6 Hep3B cells were subcutaneously seeded on the right back of each nude mouse (PBS:Matrigel=1:1). Administration was started when the average tumor volume reached 128 mm^3.
The mice were administered by gavage, twice a day. Control group was given pure water. Three treatment groups were administered Compound 4, at the doses of 10 mg/kg, 30 mg/kg, and 60 mg/kg, respectively. Tumors were measured and weighed twice a week. By day 16, the average tumor volume in the control group had reached the humanitarian endpoint (2000 mm^3), and the experiment was terminated.
The data was processed by software such as Excel. […] The tumor inhibition effect was obvious in Hep 3B tumor models.

FGFR4 = FGFR4 (Homo sapiens, UniProt P22455); test: In vitro biochemical kinase analysis of FGFR4 (HTRF KinEASE-TK); conditions: HTRF kinase assay
Description: In Vitro Biochemical Kinase Analysis of FGFR4
FGFR4 protein kinase detection kit was purchased from Cisbio (HTRF KinEASE-TK kit). Prepare 1× kinase reaction buffer. Transfer 10 nL of a diluted compound to each well of a reaction plate (784075, Greiner) with an Echo 550, and seal the plate with sealing film. The reaction plate was centrifuged at 1000 g for 1 minute. Prepare 2×FGFR4 using 1× kinase reaction buffer, add 5 μL of kinase to each well of the reaction plate, seal the plate, centrifuge at 1000 g for 30 seconds, and incubate it at room temperature for 10 minutes. Prepare a mixture of 2×TK-substrate-biotin and ATP using 1× kinase reaction buffer, add 5 μL of TK-substrate-biotin/ATP mixture to the reaction plate, seal the plate with sealing film, centrifuge at 1000 g for 30 seconds, and react at room temperature for 40 minutes. Prepare 2×Sa-XL 665 and TK-antibody-Cryptate mixture using HTRF detection buffer, add 10 μL Sa-XL 665 and TK-antibody-Cryptate mixture to each well, centrifuge at 1000 g for 30 seconds, and react at room temperature for 1 hour. Envision 2104 read fluorescence signals at 615 nm (Cryptate) and at 665 nm (XL665). IC50 of the compound was calculated using the GraphPad nonlinear fitting formula.

Sequence of FGFR4 (P22455 22-802): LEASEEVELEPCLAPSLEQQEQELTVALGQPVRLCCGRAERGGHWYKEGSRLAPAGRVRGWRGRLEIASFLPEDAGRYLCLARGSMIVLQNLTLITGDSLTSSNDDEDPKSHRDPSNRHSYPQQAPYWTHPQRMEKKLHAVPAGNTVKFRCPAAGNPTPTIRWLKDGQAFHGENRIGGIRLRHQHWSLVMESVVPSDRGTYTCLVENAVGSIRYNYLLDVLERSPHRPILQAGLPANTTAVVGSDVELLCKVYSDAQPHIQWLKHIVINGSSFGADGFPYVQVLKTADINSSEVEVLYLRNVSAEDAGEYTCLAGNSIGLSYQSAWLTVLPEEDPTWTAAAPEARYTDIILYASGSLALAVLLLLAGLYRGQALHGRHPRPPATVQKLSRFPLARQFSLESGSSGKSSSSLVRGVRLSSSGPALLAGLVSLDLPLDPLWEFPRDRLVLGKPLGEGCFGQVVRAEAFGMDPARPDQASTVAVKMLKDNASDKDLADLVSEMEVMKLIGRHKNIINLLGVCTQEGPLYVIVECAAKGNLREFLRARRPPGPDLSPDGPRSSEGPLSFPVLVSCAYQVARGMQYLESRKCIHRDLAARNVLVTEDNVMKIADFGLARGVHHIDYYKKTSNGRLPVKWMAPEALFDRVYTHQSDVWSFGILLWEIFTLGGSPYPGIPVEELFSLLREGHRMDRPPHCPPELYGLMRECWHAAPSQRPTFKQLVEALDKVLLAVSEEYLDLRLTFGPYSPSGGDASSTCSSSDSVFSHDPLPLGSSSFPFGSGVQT

SMILES | EC50 (HuH-7 hepatoma cells; Homo sapiens, Huh-7, 96 h) | EC50 (Hep 3B hepatoma cells; Homo sapiens, Hep3B, 96 h) | IC50 (FGFR4) | EC50 (HuH-7 hepatoma cells; 96 hours) | EC50 (Hep 3B hepatoma cells; 96 hours) | tumor inhibition rate (Hep 3B tumor models; 30 mg/kg) | tumor inhibition rate (Hep 3B tumor models; 60 mg/kg) | tumor inhibition effect (Hep 3B tumor models; Hep 3B tumor models, in words)
COCCNc1cc(NC(=O)N2c3nc(C=O)c(CN4CCN(C)CC4=O)cc3C3(F)CC2C3)ncc1C#N [Compound 4, N-(5-cyano-4-((2-methoxyethyl)amino)pyridin-2-yl)-4-fluoro-7-formyl-6-((4-methyl-2-oxopiperazin-1-yl)methyl)-3,4-dihydro-2,4-methylene-1,8-naphthyridine-1(2H)-carboxamide] | 12 nM | 6.4 nM | 0.7 nM | – | – | 78% | 97% | obvious
COC1CCCC1Nc1cc(NC(=O)N2c3nc(C=O)c(CN4CCN(C)CC4=O)cc3C3(F)CC2C3)ncc1C#N (single isomer, unassigned) [Compound 11-P1, N-(5-cyano-4-(((trans)-2-methoxycyclopentyl)amino)pyridin-2-yl)-4-fluoro-7-formyl-64(4-methyl-2-oxopiperazin-1-yl)methyl)-3,4-dihydro-2,4-methylene-1,8-naphthyridine-1(2H)-carboxamide] | – | – | 1.3 nM | 0.2 nM | 5.6 nM | – | – | –
COCCNc1cc(NC(=O)N2c3nc(C=O)ccc3C3(F)CC2C3)ncc1C#N [Compound 1, N-(5-cyano-4-((2-methoxyethyl)amino)pyridin-2-yl)-4-fluoro-7-formyl-3,4-dihydro-2,4-methylene-1,8-naphthyridine-1(2H)-carboxamide] | 62 nM | 15.1 nM | 0.4 nM | – | – | – | – | –

Now from value to compound, other results behind:

EC50 (HuH-7 hepatoma cells; Homo sapiens, Huh-7, 96 h) | EC50 (Hep 3B hepatoma cells; Homo sapiens, Hep3B, 96 h) | IC50 (FGFR4) | EC50 (HuH-7 hepatoma cells; 96 hours) | EC50 (Hep 3B hepatoma cells; 96 hours) | SMILES | tumor inhibition rate (Hep 3B tumor models; 30 mg/kg) | tumor inhibition rate (Hep 3B tumor models; 60 mg/kg) | tumor inhibition effect (Hep 3B tumor models; Hep 3B tumor models, in words)
0.7 nM | 1.7 nM | 0.5 nM | – | – | COCCNc1cc(NC(=O)N2c3nc(C=O)ccc3C3(NC(=O)c4cnn(C)c4)CC2C3)ncc1C#N [Compound 32, N-(5-cyano-4-((2-methoxyethyl)amino)pyridin-2-yl)-4-(1-methyl-1H-pyrazole-4-carboxamido)-7-formyl-3,4-dihydro-2,4-methylene-1,8-naphthyridine-1(2H)-carboxamide] | – | – | –
31.6 nM | 6 nM | 0.8 nM | – | – | CO[C@@H]1CCC[C@H]1Nc1cc(NC(=O)N2c3nc(C=O)ccc3C3(F)CC2C3)ncc1C#N (relative stereo) [Compound 19, N-(5-cyano-4-(((trans)-2-methoxycyclopentyl)amino)pyridin-2-yl)-4-fluoro-7-formyl-3,4-dihydro-2,4-methylene-1,8-naphthyridine-1(2H)-carboxamide] | – | – | –
